Assay results: ChEMBL document CHEMBL3774345, “Synthesis of new diarylamides with pyrimidinyl pyridine scaffold and evaluation of their anti-proliferative effect on cancer cell lines” (Bioorg Med Chem Lett, 2016)

Legend:
[1] = Cytotoxicity against human OVCAR8 cells assessed as cell growth at 10^-8 M after 24 hrs by SRB assay; assay type: functional; conditions: OVCAR-8, 24 h, read-out: Activity
[2] = Cytotoxicity against human NCI-ADR-RES cells assessed as cell growth at 10^-8 M after 24 hrs by SRB assay; assay type: functional; conditions: read-out: Activity
786-0 [3] = test: Cytotoxicity against human 786-0 cells assessed as cell growth at 10^-8 M after 24 hrs by SRB assay; assay type: functional; conditions: 786-0, 24 h, read-out: Activity
SN12C [4] = test: Cytotoxicity against human SN12C cells assessed as cell growth at 10^-8 M after 24 hrs by SRB assay; assay type: functional; conditions: read-out: Activity
KM12 [5] = test: Cytotoxicity against human KM12 cells assessed as cell growth at 10^-7 M after 24 hrs by SRB assay; assay type: functional; conditions: KM12, 24 h, read-out: Activity
[6] = Cytotoxicity against human MOLT4 cells assessed as cell growth at 10^-4 M after 24 hrs by SRB assay; assay type: functional; conditions: MOLT-4, 24 h, read-out: Activity
SK-MEL-5 = test: Cytotoxicity against human SK-MEL-5 cells assessed as cell growth at 10^-7 M after 24 hrs by SRB assay; assay type: functional; conditions: SK-MEL-5, 24 h, read-out: Activity
[7] = Cytotoxicity against human OVCAR3 cells assessed as cell growth at 10^-7 M after 24 hrs by SRB assay; assay type: functional; conditions: OVCAR-3, 24 h, read-out: Activity
[8] = Cytotoxicity against human NCI-ADR-RES cells assessed as cell growth at 10^-7 M after 24 hrs by SRB assay; assay type: functional; conditions: read-out: Activity
[9] = Cytotoxicity against human RXF393 cells assessed as cell growth at 10^-7 M after 24 hrs by SRB assay; assay type: functional; conditions: RXF 393, 24 h, read-out: Activity
[10] = Cytotoxicity against human SF295 cells after 24 hrs by SRB assay; assay type: functional, cell-based; conditions: SF-295, 24 h
U-251 = test: Cytotoxicity against human U251 cells assessed as cell growth at 10^-4 M after 24 hrs by SRB assay; assay type: functional; conditions: U-251, 24 h, read-out: Activity
[11] = Cytotoxicity against human UO31 cells assessed as cell growth at 10^-7 M after 24 hrs by SRB assay; assay type: functional; conditions: UO-31, 24 h, read-out: Activity
[12] = Cytotoxicity against human PC3 cells assessed as cell growth at 10^-7 M after 24 hrs by SRB assay; assay type: functional; conditions: PC-3, 24 h, read-out: Activity
SR = test: Cytotoxicity against human SR cells assessed as cell growth at 10^-6 M after 24 hrs by SRB assay; assay type: functional; conditions: read-out: Activity
[13] = Cytotoxicity against human UACC62 cells assessed as cell growth at 10^-4 M after 24 hrs by SRB assay; assay type: functional; conditions: UACC-62, 24 h, read-out: Activity
ACHN = test: Cytotoxicity against human ACHN cells assessed as cell growth at 10^-4 M after 24 hrs by SRB assay; assay type: functional; conditions: read-out: Activity
MCF7 = test: Cytotoxicity against human MCF7 cells assessed as cell growth at 10^-4 M after 24 hrs by SRB assay; assay type: functional; conditions: MCF7, 24 h, read-out: Activity
MDA-MB-231 [14] = test: Cytotoxicity against human MDA-MB-231 cells assessed as cell growth at 10^-4 M after 24 hrs by SRB assay; assay type: functional; conditions: MDA-MB-231, 24 h, read-out: Activity
[15] = Cytotoxicity against human SF295 cells assessed as cell growth at 10^-6 M after 24 hrs by SRB assay; assay type: functional; conditions: SF-295, 24 h, read-out: Activity
[16] = Cytotoxicity against human IGROV1 cells assessed as cell growth at 10^-6 M after 24 hrs by SRB assay; assay type: functional; conditions: IGROV-1, 24 h, read-out: Activity
786-0 [17] = test: Cytotoxicity against human 786-0 cells assessed as cell growth at 10^-6 M after 24 hrs by SRB assay; assay type: functional; conditions: 786-0, 24 h, read-out: Activity
MDA-MB-231 [18] = test: Cytotoxicity against human MDA-MB-231 cells assessed as cell growth at 10^-6 M after 24 hrs by SRB assay; assay type: functional; conditions: MDA-MB-231, 24 h, read-out: Activity
[19] = Cytotoxicity against human BT549 cells assessed as cell growth at 10^-6 M after 24 hrs by SRB assay; assay type: functional; conditions: BT-549, 24 h, read-out: Activity
[20] = Cytotoxicity against human OVCAR8 cells after 24 hrs by SRB assay; assay type: functional; conditions: OVCAR-8, 24 h
[21] = Cytotoxicity against human BT549 cells after 24 hrs by SRB assay; assay type: functional; conditions: BT-549, 24 h
T47D [22] = test: Cytotoxicity against human T47D cells after 24 hrs by SRB assay; assay type: functional
KM12 [23] = test: Cytotoxicity against human KM12 cells assessed as cell growth at 10^-8 M after 24 hrs by SRB assay; assay type: functional; conditions: KM12, 24 h, read-out: Activity
SK-MEL-28 = test: Cytotoxicity against human SK-MEL-28 cells assessed as cell growth at 10^-8 M after 24 hrs by SRB assay; assay type: functional; conditions: SK-MEL-28, 24 h, read-out: Activity
T47D [24] = test: Cytotoxicity against human T47D cells assessed as cell growth at 10^-6 M after 24 hrs by SRB assay; assay type: functional; conditions: read-out: Activity
EKVX = test: Cytotoxicity against human EKVX cells assessed as cell growth at 10^-5 M after 24 hrs by SRB assay; assay type: functional; conditions: read-out: Activity
NCI-H23 = test: Cytotoxicity against human NCI-H23 cells assessed as cell growth at 10^-5 M after 24 hrs by SRB assay; assay type: functional; conditions: NCI-H23, 24 h, read-out: Activity
[25] = Cytotoxicity against human NCI-ADR-RES cells assessed as cell growth at 10^-5 M after 24 hrs by SRB assay; assay type: functional; conditions: read-out: Activity
SN12C [26] = test: Cytotoxicity against human SN12C cells assessed as cell growth at 10^-5 M after 24 hrs by SRB assay; assay type: functional; conditions: read-out: Activity
[27] = Cytotoxicity against human TK10 cells assessed as cell growth at 10^-5 M after 24 hrs by SRB assay; assay type: functional; conditions: TK-10, 24 h, read-out: Activity
[28] = Cytotoxicity against human SNB75 cells assessed as growth inhibition at 10 uM after 24 hrs by SRB assay; assay type: functional; conditions: SNB-75, 24 h, read-out: GI
[29] = Cytotoxicity against human OVCAR8 cells assessed as growth inhibition at 10 uM after 24 hrs by SRB assay; assay type: functional; conditions: OVCAR-8, 24 h, read-out: GI
[30] = read-out: LC50 (the source's name)
[31] = read-out: pLC50 (the source's name) (converted)

## O=C(Nc1cc(-c2cccnc2)nc(NCCCN2CCOCC2)n1)c1cc(Br)cc(C(F)(F)F)c1
[1]
  growth at 0.01 µM: 106%
[2]
  growth at 0.01 µM: 100%
786-0 [3]
  growth at 0.01 µM: 93%
SN12C [4]
  growth at 0.01 µM: 95%
KM12 [5]
  growth at 0.1 µM: 99%
[6]
  growth at 100 µM: -67%
SK-MEL-5
  growth at 0.1 µM: 95%
[7]
  growth at 0.1 µM: 102%
[8]
  growth at 0.1 µM: 99%
[9]
  growth at 0.1 µM: 97%
[10]; read-out: GI50
  GI50: 1.94 µM
[10]; [30]
  CC50: 7.97 µM
[10]; read-out: TGI
  TGI: 3.93 µM
[10]; read-out: pGI50 (converted)
  GI50: 1.95 µM
[10]; [31]
  CC50: 7.94 µM
[10]; read-out: pTGI (converted)
  TGI: 3.89 µM
U-251
  growth at 100 µM: -93%
[11]
  growth at 0.1 µM: 90%
[12]
  growth at 0.1 µM: 95%
SR
  growth at 1 µM: 85%
[13]
  growth at 100 µM: -90%
ACHN
  growth at 100 µM: -79%
MCF7
  growth at 100 µM: -75%
MDA-MB-231 [14]
  growth at 100 µM: -84%
[15]
  growth at 1 µM: 97%
[16]
  growth at 1 µM: 92%
786-0 [17]
  growth at 1 µM: 81%
MDA-MB-231 [18]
  growth at 1 µM: 87%
[19]
  growth at 1 µM: 83%
[20]; read-out: GI50
  GI50: 2.98 µM
[20]; [30]
  CC50: 39.4 µM
[20]; read-out: TGI
  TGI: 8.59 µM
[20]; read-out: pGI50 (converted)
  GI50: 2.95 µM
[20]; [31]
  CC50: 39.8 µM
[20]; read-out: pTGI (converted)
  TGI: 8.51 µM
[21]; read-out: GI50
  GI50: 3.27 µM
[21]; [30]
  CC50: 45 µM
[21]; read-out: TGI
  TGI: 15 µM
[21]; read-out: pGI50 (converted)
  GI50: 3.24 µM
[21]; [31]
  CC50: 44.7 µM
[21]; read-out: pTGI (converted)
  TGI: 15.1 µM
T47D [22]; read-out: GI50
  GI50: 3.72 µM
T47D [22]; [30]
  CC50: 48.5 µM
T47D [22]; read-out: TGI
  TGI: 16.1 µM
T47D [22]; read-out: pGI50 (converted)
  GI50: 3.72 µM
T47D [22]; [31]
  CC50: 49 µM
T47D [22]; read-out: pTGI (converted)
  TGI: 16.2 µM
KM12 [23]
  growth at 0.01 µM: 99%
SK-MEL-28
  growth at 0.01 µM: 92%
T47D [24]
  growth at 1 µM: 88%
EKVX
  growth at 10 µM: 17%
NCI-H23
  growth at 10 µM: 18%
[25]
  growth at 10 µM: -4%
SN12C [26]
  growth at 10 µM: 44%
[27]
  growth at 10 µM: 34%

## COCCCNc1nc(NC(=O)c2cc(OC)cc(OC)c2)cc(-c2cccnc2)n1
[28]
  inhibition of growth at 10 µM: 26.9%
[29]
  inhibition of growth at 10 µM: 20.7%
